According to patent US10920265B2, “Compounds and methods for detection of enzymes that remove methyl succinyl groups from epsilon-amino lysine moieties” (Enzo Life Sciences, Inc., priority 2011, dated 2021):
One block for each compound: values may come before it. *: point of attachment. AMC = Cc1cc(=O)oc2cc(N*)ccc12

Legend:
SIRT2 [1] = target: T1, SIRT2 (Homo sapiens, UniProt Q8IXJ6); assay: Sirtuin activity with fluorogenic lysyl substrates; assay type: biochemical; details: 50 μM substrate, 500 μM NAD^+
T1 sequence (Q8IXJ6 1-389): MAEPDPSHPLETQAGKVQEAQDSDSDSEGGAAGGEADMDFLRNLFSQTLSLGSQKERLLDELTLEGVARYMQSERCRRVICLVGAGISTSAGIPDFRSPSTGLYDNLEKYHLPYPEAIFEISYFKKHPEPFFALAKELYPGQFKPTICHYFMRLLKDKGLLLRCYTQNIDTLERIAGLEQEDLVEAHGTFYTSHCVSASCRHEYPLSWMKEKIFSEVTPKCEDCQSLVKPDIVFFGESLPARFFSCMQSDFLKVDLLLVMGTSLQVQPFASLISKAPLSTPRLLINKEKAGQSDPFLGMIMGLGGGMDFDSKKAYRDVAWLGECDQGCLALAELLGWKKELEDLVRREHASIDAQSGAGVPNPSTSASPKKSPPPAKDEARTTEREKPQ
Procedure: (§1) The Ac-Lys(Succ.)-AMC substrate was tested for activity with recombinant preparations of human HDACs 1-11, SIRTs 1-4, 6 and 7, a complex of HDAC3 with a fragment of the activating protein NCOR1 and with HeLa nuclear extract, a rich source of active HDACs in their native multiprotein complexes.
(§2) Enzyme and extract catalog products obtained from ENZO Life Sciences included: HDAC1 (Cat. # BML-SE456), HDAC2 (Cat. # BML-SE500), HDAC3 (Cat. # BML-SE507), HDAC3/NCOR1 Complex (Cat. # BML-SE515), HDAC6 (Cat. # BML-SE508), HDAC8 (Cat. # BML-SE145), HDAC10 (Cat. # BML-SE559), HDAC11 (Cat. # BML-SE560), SIRT1 (Cat. # BML-SE239), SIRT2 (Cat. # BML-SE251), SIRT3 (Cat. # BML-SE270), SIRT5 (Cat. # BML-SE555), HeLa Nuclear Extract (Cat. # BML-KI140), Trypsin (“Fluor de Lys Developer”, 80 mg/ml bovine trypsin in 1 mM HCl, Cat. # BML-KI105 or “Fluor de Lys Developer II”, 80 mg/ml bovine trypsin in 1 mM HCl, Cat. # BML-KI176). […] Enzymes obtained from BPS Bioscience, San Diego, Calif. included: human recombinants SIRT4 (Cat. #50015), SIRT6 (Cat. #50017), SIRT7 (Cat. #50018). HeLa whole cell extract was obtained from HeLa S3 cells (American Type Culture Collection) grown in a medium of MEM/10% fetal bovine serum (FBS) as follows: 1) 9×10^6 cells were suspended by trypsinization, followed by a phosphate buffered saline (PBS) rinse and addition of MEM/10% FBS (1.5 mL) to eliminate trypsin before transfer to a 15 mL conical tube; 2) cells were sedimented by a low speed centrifugation, gently resuspended in PBS and sedimented again and supernatant removed; 3) lysis was induced by resuspension in 0.8 mL 50 mM Tris/HCl, pH 8.0 with the non-denaturing detergent NP-40 (0.5%), placement on ice and brief vortexing every 5 min. for 30 min.; 4) 100 μl of a concentrated salt solution in the same buffer was added in order to bring the final buffer composition to 50 mM Tris/C1, pH 8.0, 137 mM NaCl, 2.7 mM KCl, 1 mM MgCl2, 0.5% NP-40; 5) particulate matter was cleared by centrifugation and the cleared lysate supernatant transferred to a 1.5 mL Eppendorf tube and stored on ice until use in activity assays.
(§3) Assays were performed at 37° C., according to the manufacturer's instructions for the “SIRT1 Fluorometric Drug Discovery Kit” from Enzo Life Sciences (ELS) (Cat. # BML-AK555), with exceptions described as follows. Where indicated in figures and text, SIRT1 enzyme was replaced with another enzyme or extract and the “Fluor de Lys-SIRT1 Substrate” (Ac-Arg-His-Lys-Lys(Ac)-AMC; ELS Cat. # BML-KI-177) was replaced with another acetylated, succinylated or trifluoroacetylated substrate.

SIRT3 = target: T2, SIRT3 (Homo sapiens, UniProt Q9NTG7); assay: Sirtuin activity with fluorogenic lysyl substrates; assay type: biochemical; details: 50 μM substrate, 500 μM NAD^+
T2 construct: purchased ENZO Life Sciences BML-SE270
T2 sequence (Q9NTG7 1-399): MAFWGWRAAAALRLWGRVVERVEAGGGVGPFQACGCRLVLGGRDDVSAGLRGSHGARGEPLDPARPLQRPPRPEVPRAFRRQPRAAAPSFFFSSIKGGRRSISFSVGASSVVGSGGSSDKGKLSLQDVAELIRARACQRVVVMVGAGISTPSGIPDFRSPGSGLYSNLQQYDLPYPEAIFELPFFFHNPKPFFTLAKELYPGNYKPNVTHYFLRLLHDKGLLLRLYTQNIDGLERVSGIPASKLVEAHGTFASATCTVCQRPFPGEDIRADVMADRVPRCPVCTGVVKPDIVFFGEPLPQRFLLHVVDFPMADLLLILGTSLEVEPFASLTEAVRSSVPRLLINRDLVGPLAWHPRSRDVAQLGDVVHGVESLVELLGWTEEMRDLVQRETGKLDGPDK
Procedure: as §1, §2, §3

SIRT5 = target: T3, SIRT5 (Homo sapiens, UniProt Q9NXA8); assay: Inhibition of SIRT5 desuccinylation of Ac-Lys(Succ.)-AMC; assay type: biochemical; set-up: purchased Enzo Life Sciences BML-SE555; details: three parameter Hill-Slope model, bottom fixed at 0
T3 sequence (Q9NXA8 37-310): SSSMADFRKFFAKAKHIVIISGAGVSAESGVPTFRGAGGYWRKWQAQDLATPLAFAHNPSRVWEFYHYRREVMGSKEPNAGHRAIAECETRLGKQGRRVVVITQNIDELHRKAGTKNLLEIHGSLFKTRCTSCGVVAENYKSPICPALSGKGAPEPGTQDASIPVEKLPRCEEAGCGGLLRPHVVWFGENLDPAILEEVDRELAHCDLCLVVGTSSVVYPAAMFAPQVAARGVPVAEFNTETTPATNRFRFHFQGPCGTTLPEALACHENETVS
Text: Signal development (trypsin treatment) and fluorescence readings were done as described, as were the conversion of fluorescence increases to rates in units of pmol/min/μg (FIG. 5). Data points represent the mean of three determinations and the error bars are the standard deviations from those means. The dose-response curve was derived from a least-squares fit to a three parameter Hill-Slope model (bottom fixed at 0 pmol/min/μg), y=top/(1+(x/IC50)^slope).
Data points represent the mean of three determinations and the error bars are the standard deviations from those means. The dose-response curve was derived from a least-squares fit to a three parameter Hill-Slope model (bottom fixed at 0 pmol/min/μg), y=top/(1+(x/IC50)^slope).
as §3

HeLa cell extracts = assay: HeLa cell extract Ac-Lys(ε-succinyl)-AMC desuccinylation activity; assay type: biochemical, human; details: 50 μM Ac-Lys(Succ.)-AMC, +NAD^+ 500 μM; TSA 1 μM, suramin 200 μM
Procedure: as §2
Assays were performed at 37° C., according to the manufacturer's instructions for the “SIRT1 Fluorometric Drug Discovery Kit” from Enzo Life Sciences (ELS) (Cat. # BML-AK555), with exceptions described as follows. […]

HeLa cells = assay: Intact HeLa cell desuccinylation/deacetylation assay; assay type: cell-based, human; details: 200 μM Ac-Lys(Ac.)-AMC, four hours, TSA 1 μM
Procedure: HeLa cells were cultured to 95% confluence in the wells of ½-volume 96-well plates. […] After the indicated time, cells were lysed with detergent and trypsin added to release AMC from desuccinylated or deacetylated substrate and then fluorescence read (Ex.360 nm/Em. 460 nm). For “0 hr.” samples, substrate, inhibitors, lysis buffer and trypsin were added simultaneously. Bars represent the mean of three determinations and the error bars the Standard Deviation from that mean. Statistically significant differences between the fluorescences of “4 hr.” and “0 hr.” samples (Student's t-test) are indicated by asterisks as follows: *,p<0.02; **, p<0.002.
An assay employing Ac-Lys(Ac.)-AMC to measure the HDAC and sirtuin deacetylase activity of intact cultured cells has been described (Howitz, K. T. et al. Nature 425, 191-196 (2003); Product Manual of Enzo Life Sciences Cat. # BML-AK-503, “HDAC Fluorimetric Cellular Activity Assay Kit”, Appendix F). Ac-Lys(Ac)-AMC is added to the culture medium, enters the cells and is deacetylated by HDACs and sirtuins in their native intracellular context. Measurement of the amount of Ac-Lys-AMC produced by intracellular deacetylation is then accomplished by detergent lysis of the cells and release of the AMC fluorophore by trypsin. We therefore investigated whether Ac-Lys(Succ.)-AMC could be used to measure intracellular desuccinylation activity, in a similar fashion, with cultured HeLa cells. […] These latter, deacetylation results are consistent with previous observations made with this assay system (see Howitz, K. T. et al. Nature 425, 191-196 (2003) and Appendix F).
Assays (FIG. 10) were performed according to the manufacturer's instructions for the ““HDAC Fluorometric Cellular Activity Assay Kit” (ELS Cat. # BML-AK503), with exceptions described as follows. Where indicated the “Fluor de Lys Substrate” (Ac-Lys(Ac.)-AMC; ELS Cat. # BML-KI104) was replaced with Ac-Lys(Succ.)-AMC (1).

HDAC5 = target: T4, HDAC5 (Homo sapiens, UniProt Q9UQL6); assay: HDAC activity with fluorogenic lysyl substrates; assay type: biochemical; details: 50 μM substrate
T4 construct: made in house; host or cells: E. coli
T4 sequence (Q9UQL6 656-1122): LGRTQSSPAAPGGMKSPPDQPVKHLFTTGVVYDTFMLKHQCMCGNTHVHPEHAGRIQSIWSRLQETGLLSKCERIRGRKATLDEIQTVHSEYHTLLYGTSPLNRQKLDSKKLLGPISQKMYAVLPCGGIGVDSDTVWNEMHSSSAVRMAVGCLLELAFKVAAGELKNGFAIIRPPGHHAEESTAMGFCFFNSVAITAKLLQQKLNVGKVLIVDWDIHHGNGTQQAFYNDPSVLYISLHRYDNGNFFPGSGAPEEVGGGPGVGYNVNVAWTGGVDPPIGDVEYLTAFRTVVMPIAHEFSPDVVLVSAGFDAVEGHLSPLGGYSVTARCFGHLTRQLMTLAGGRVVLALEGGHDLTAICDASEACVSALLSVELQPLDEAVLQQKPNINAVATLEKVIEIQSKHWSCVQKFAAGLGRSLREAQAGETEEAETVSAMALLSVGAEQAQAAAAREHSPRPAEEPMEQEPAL
Procedure: as §1, §2, §3

HDAC7 = target: T5, HDAC7 (Homo sapiens, UniProt Q8WUI4); assay: HDAC activity with fluorogenic lysyl substrates; assay type: biochemical; details: 50 μM substrate
T5 construct: made in house; host or cells: E. coli
T5 sequence (Q8WUI4 483-903): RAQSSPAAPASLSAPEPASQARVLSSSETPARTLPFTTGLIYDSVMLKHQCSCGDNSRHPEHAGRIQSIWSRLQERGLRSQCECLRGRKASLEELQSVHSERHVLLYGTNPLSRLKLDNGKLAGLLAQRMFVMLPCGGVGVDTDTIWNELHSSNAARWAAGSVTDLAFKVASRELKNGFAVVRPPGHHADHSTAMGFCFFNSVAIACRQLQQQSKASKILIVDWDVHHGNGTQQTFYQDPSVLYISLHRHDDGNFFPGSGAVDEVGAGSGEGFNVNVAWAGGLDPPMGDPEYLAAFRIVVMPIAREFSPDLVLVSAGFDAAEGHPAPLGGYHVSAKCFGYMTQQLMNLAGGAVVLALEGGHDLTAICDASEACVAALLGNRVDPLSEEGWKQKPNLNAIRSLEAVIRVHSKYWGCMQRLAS
Procedure: as §1, §2, §3

HDAC9 = target: T6, HDAC9 (Homo sapiens, UniProt Q9UKV0); assay: HDAC activity with fluorogenic lysyl substrates; assay type: biochemical; details: 50 μM substrate
T6 construct: made in house; host or cells: E. coli
T6 sequence (Q9UKV0 644-1066 isoform Q9UKV0-5): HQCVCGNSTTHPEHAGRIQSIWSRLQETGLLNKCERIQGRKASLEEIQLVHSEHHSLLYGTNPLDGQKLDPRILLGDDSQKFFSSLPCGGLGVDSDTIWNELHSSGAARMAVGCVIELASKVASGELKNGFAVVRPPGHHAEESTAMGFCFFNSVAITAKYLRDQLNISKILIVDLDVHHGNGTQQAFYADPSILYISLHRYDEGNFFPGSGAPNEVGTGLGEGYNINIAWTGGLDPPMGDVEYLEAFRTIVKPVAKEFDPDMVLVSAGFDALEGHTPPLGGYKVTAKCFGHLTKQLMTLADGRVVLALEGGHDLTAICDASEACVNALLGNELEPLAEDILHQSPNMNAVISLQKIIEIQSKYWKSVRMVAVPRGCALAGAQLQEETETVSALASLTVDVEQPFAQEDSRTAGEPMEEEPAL
Procedure: as §1, §2, §3

HDAC4 = assay: HDAC activity with fluorogenic lysyl substrates; assay type: biochemical, human; details: 50 μM substrate
Sequence of HDAC4 (P56524 626-1084 limits assumed): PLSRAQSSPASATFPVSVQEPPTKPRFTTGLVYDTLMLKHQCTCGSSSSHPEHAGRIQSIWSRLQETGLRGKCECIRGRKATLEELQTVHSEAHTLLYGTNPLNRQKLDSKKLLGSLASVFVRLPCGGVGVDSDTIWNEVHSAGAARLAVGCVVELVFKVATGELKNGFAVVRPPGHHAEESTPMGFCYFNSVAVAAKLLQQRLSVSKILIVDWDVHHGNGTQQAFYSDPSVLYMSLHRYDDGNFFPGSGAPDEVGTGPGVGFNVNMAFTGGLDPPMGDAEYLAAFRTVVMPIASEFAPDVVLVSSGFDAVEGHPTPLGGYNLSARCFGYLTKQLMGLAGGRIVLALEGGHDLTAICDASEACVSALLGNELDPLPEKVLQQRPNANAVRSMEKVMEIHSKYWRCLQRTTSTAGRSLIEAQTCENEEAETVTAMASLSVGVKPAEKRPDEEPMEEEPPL
Procedure: as §1
Enzyme and extract catalog products obtained from ENZO Life Sciences included: HDAC1 (Cat. # BML-SE456), HDAC2 (Cat. # BML-SE500), HDAC3 (Cat. # BML-SE507), HDAC3/NCOR1 Complex (Cat. # BML-SE515), HDAC6 (Cat. # BML-SE508), HDAC8 (Cat. # BML-SE145), HDAC10 (Cat. # BML-SE559), HDAC11 (Cat. # BML-SE560), SIRT1 (Cat. # BML-SE239), SIRT2 (Cat. # BML-SE251), SIRT3 (Cat. # BML-SE270), SIRT5 (Cat. # BML-SE555), HeLa Nuclear Extract (Cat. # BML-KI140), Trypsin (“Fluor de Lys Developer”, 80 mg/ml bovine trypsin in 1 mM HCl, Cat. # BML-KI105 or “Fluor de Lys Developer II”, 80 mg/ml bovine trypsin in 1 mM HCl, Cat. # BML-KI176). […] Enzymes obtained from BPS Bioscience, San Diego, Calif. included: human recombinants SIRT4 (Cat. #50015), SIRT6 (Cat. #50017), SIRT7 (Cat. #50018). […]

SIRT2 [2] = target: T1, SIRT2; details: varied Lysyl, cited from earlier work

Activity (pmol/min/μg) (SIRT2 [1]): Ac-QPKK(Ac)-AMC/18.6 pmol/min/μg | Activity (pmol/min/μg) (SIRT3): Ac-QPKK(Ac)-AMC/10.8 pmol/min/μg
Compound: Ac-Gln-Pro-Lys-Lys(Ac)-AMC (Ac-QPKK(Ac)-{AMC}; SMILES CC(=O)NCCCC[C@H](NC(=O)[C@H](CCCCN)NC(=O)[C@@H]1CCCN1C(=O)[C@H](CCC(N)=O)NC(C)=O)C(=O)Nc1ccc2c(C)cc(=O)oc2c1) [Ac-QPKK(Ac)-AMC, reference compound]

Compound: Cc1ccc(C(=O)Nc2ccc(S(=O)(=O)O)c3cc(S(=O)(=O)O)cc(S(=O)(=O)O)c23)cc1NC(=O)c1cccc(NC(=O)Nc2cccc(C(=O)Nc3cc(C(=O)Nc4ccc(S(=O)(=O)O)c5cc(S(=O)(=O)O)cc(S(=O)(=O)O)c45)ccc3C)c2)c1 [suramin]
slope (fitted parameter of dose-response curve) (SIRT5): 2.37 | top (fitted parameter of dose-response curve) (SIRT5): 127 pmol/min/µg | Inhibition of the total 2 hr. fluorescence increase (HeLa cell extracts): ~50%

Compound: CC(/C=C/C(=O)NO)=C\[C@@H](C)C(=O)c1ccc(N(C)C)cc1 [trichostatin A]
Fraction of deacetylation sensitive to inhibitor (HeLa cells): > 90% | Inhibition of the total 2 hr. fluorescence increase (HeLa cell extracts): ~50%

Activity (pmol/min/μg) (HDAC5): Ac-LGK(TFAc)-AMC/9960 pmol/min/μg | Activity (pmol/min/μg) (HDAC7): Ac-LGK(TFAc)-AMC/1670 pmol/min/μg | Activity (pmol/min/μg) (HDAC9): Ac-LGK(TFAc)-AMC/3330 pmol/min/μg
Compound: Ac-Leu-Gly-Lys(TFAc)-AMC [Ac-LGK(TFAc)-AMC, reference compound]
Activity (pmol/min/μg) (HDAC4): Ac-LGK(TFAc)-AMC/1390 pmol/min/μg

Compound: Hist. H3 1-20, K9Ac: unlabeled peptide, histone H3 residues 1-20 acetylated on lysine-9
Km (SIRT2 [2]; Borra et al., 2004, read-out: Km (Lysyl substrate)): 24 µM | kcat (SIRT2 [2]; Borra et al., 2004): 0.24 s⁻¹
